Results from ChEMBL document CHEMBL4765419, “Design, synthesis and bioactivity evaluation of novel arylalkene-amide derivatives as dual-target antifungal inhibitors” (Eur J Med Chem, 2020).
Active and inactive are the calls of the source. The calls are words filed in the database; no cut-off is given here.

What was measured:
Candida albicans [1] = test: Antifungal activity against Candida albicans assessed as inhibition of microbial growth by two fold broth microdilution method; assay type: functional
Pichia kudriavzevii = test: Antifungal activity against Candida krusei assessed as inhibition of microbial growth by two fold broth microdilution method; assay type: functional
Nakaseomyces glabratus = test: Antifungal activity against Candida glabrata assessed as inhibition of microbial growth by two fold broth microdilution method; assay type: functional
Aspergillus fumigatus = test: Antifungal activity against Aspergillus fumigatus assessed as inhibition of microbial growth by two fold broth microdilution method; assay type: functional
Candida tropicalis = test: Antifungal activity against Candida tropicalis assessed as inhibition of microbial growth by two fold broth microdilution method; assay type: functional
Candida albicans [2] = test: Antifungal activity against fluconazole-resistant Candida albicans 17# assessed as inhibition of microbial growth by two fold broth microdilution method; assay type: functional
Candida albicans [3] = test: Antifungal activity against fluconazole-resistant Candida albicans CaR assessed as inhibition of microbial growth by two fold broth microdilution method; assay type: functional
Candida albicans [4] = test: Antifungal activity against fluconazole-resistant Candida albicans 632 assessed as inhibition of microbial growth by two fold broth microdilution method; assay type: functional
Candida albicans [5] = test: Antifungal activity against fluconazole-resistant Candida albicans 901 assessed as inhibition of microbial growth by two fold broth microdilution method; assay type: functional
Candida albicans [6] = test: Antifungal activity against fluconazole-resistant Candida albicans 904 assessed as inhibition of microbial growth by two fold broth microdilution method; assay type: functional
Candida albicans [7] = test: Antifungal activity against Candida albicans ATCC SC5314 assessed as decrease in fungal cell density by polarizing microscopy; assay type: functional, organism-based
Candida albicans SC5314 [8] = test: Inhibition of CYP51 in Candida albicans ATCC SC5314 assessed as ergosterol level at 4 ug/ml incubated for 16 hrs by LC/MS analysis (reference value: 79.43 %); set-up: scale not given: the % may be the effect or the level left; conditions: dose 4.0 µg/ml
Candida albicans SC5314 [9] = test: Inhibition of CYP51 in Candida albicans ATCC SC5314 assessed as lanosterol level at 4 ug/ml incubated for 16 hrs by LC/MS analysis (reference value: 6.62 %); set-up: scale not given: the % may be the effect or the level left; conditions: dose 4.0 µg/ml
Candida albicans SC5314 [10] = test: Inhibition of CYP51 in Candida albicans ATCC SC5314 assessed as eburicol level at 4 ug/ml incubated for 16 hrs by LC/MS analysis (reference value: 4.67 %); set-up: scale not given: the % may be the effect or the level left; conditions: dose 4.0 µg/ml
Candida albicans SC5314 [11] = test: Inhibition of CYP51 in Candida albicans ATCC SC5314 assessed as squalene level at 4 ug/ml incubated for 16 hrs by LC/MS analysis (reference value: 2.25 %); set-up: scale not given: the % may be the effect or the level left; conditions: dose 4.0 µg/ml
Candida albicans SC5314 [12] = test: Inhibition of CYP51 in Candida albicans ATCC SC5314 assessed as unidentified sterol level at 4 ug/ml incubated for 16 hrs by LC/MS analysis (reference value: 7.03 %); set-up: scale not given: the % may be the effect or the level left; conditions: dose 4.0 µg/ml

Compound: OC(Cn1cncn1)(Cn1cncn1)c1ccc(F)cc1F [FLUCONAZOLE]
- MIC (Candida albicans [1]): 0.25 µg/mL
- MIC (Pichia kudriavzevii): 1 µg/mL
- MIC (Nakaseomyces glabratus): 0.5 µg/mL
- MIC (Aspergillus fumigatus): > 16 µg/mL
- MIC (Candida tropicalis): 0.5 µg/mL
- MIC (Candida albicans [2]): > 16 µg/mL
- MIC (Candida albicans [3]): > 16 µg/mL
- MIC (Candida albicans [4]): > 16 µg/mL
- MIC (Candida albicans [5]): > 16 µg/mL
- MIC (Candida albicans [6]): > 16 µg/mL
- Activity (Candida albicans [7]): Active
- Activity (Candida albicans SC5314 [8]): 7.62%
- Activity (Candida albicans SC5314 [9]): 13.9%
- Activity (Candida albicans SC5314 [10]): 65.5%
- Activity (Candida albicans SC5314 [11]): 3.68%
- Activity (Candida albicans SC5314 [12]): 9.26%
